The values below come from article PMC12145052 (Acta Pharmaceutica Sinica. B, 2025).

In brackets after ≈: the same amount, converted by molar mass. Where a SMILES comes first, the peptide text is derived from it. [ ]: non-standard residue; d: D form. Phe(ol) = N[C@H](CO)Cc1ccccc1; Aib = CC(C)(N)C(=O)O

For one assay, the system named is S. aureus ATCC 29213. In words: Antibacterial test, broth microdilution. The format is cell-based, Staphylococcus aureus. The note with it: Fig. S5. On the technique in general: In broth dilution the organism is exposed to a series of concentrations in liquid medium.
For assay [1] the following is noted: read-out: KD with PG; cited from earlier work.
The subject of assay [2] is MRSA T144. In words: Galleria mellonella infection model. The class given is in vivo. Conditions: MRSA T144 5.0 × 10^6 CFUs; 10 mg/kg at 1 h post-infection; n = 7.
The subject of another assay is S. simulans 4. In words: Antibacterial test, broth microdilution. The class given is cell-based. Conditions: Staphylococcus simulans.
In the next assay the test system is MRSA 1530 (cfr). In words: Antibacterial test, broth microdilution. Conditions: Staphylococcus aureus. The format is cell-based, methicillin-resistant Staphylococcus aureus.
Assay [3] concerns MRSA T144. Briefly: Antibacterial test, broth microdilution. The format is cell-based, methicillin-resistant Staphylococcus aureus. Conditions: Staphylococcus aureus.

Consider `CC(=O)NC(C)(C)C(=O)N1CCC[C@H]1C(=O)NC(C)(C)C(=O)N[C@@H](C)C(=O)NC(C)(C)C(=O)N[C@@H](C)C(=O)N[C@@H](CCC(N)=O)C(=O)NC(C)(C)C(=O)N[C@H](C(=O)NC(C)(C)C(=O)NCC(=O)N[C@@H](CC(C)C)C(=O)NC(C)(C)C(=O)N1CCC[C@H]1C(=O)N[C@H](C(=O)NC(C)(C)C(=O)NC(C)(C)C(=O)N[C@@H](CCC(=O)O)C(=O)N[C@@H](CCC(N)=O)C(=O)N[C@H](CO)Cc1ccccc1)C(C)C)C(C)C` [alamethicin] (Ac-[Aib]P[Aib]A[Aib]AQ[Aib]V[Aib]GL[Aib]PV[Aib][Aib]EQ[Phe(ol)]; N-terminus assumed), for which the MIC (usually the least concentration at which growth counts as inhibited) against S. aureus ATCC 29213 amounted to 16 µg/mL (≈ 8.15 µM).

With daptomycin, in assay [1], the Kd (as a rule, the free concentration of one partner at which half of the binding sites on the other are occupied at equilibrium, for simple one-to-one binding) is 3.1 µM.

Consider `CN[C@H](CC(C)C)C(=O)N[C@H]1C(=O)N[C@@H](CC(N)=O)C(=O)N[C@H]2C(=O)N[C@H]3C(=O)N[C@H](C(=O)N[C@H](C(=O)O)c4cc(O)cc(O)c4-c4cc3ccc4O)[C@H](O)c3ccc(c(Cl)c3)Oc3cc2cc(c3O[C@@H]2O[C@H](CO)[C@@H](O)[C@H](O)[C@H]2O[C@H]2C[C@](C)(N)[C@H](O)[C@H](C)O2)Oc2ccc(cc2Cl)[C@H]1O` [Vancomycin], for which the “Bacterial loads in G. mellonella larvae” value in the assay on MRSA T144 [2] is listed as “decreased bacterial loads”. In addition, the MIC with S. simulans 4, in the assay with MRSA 1530 (cfr) and with MRSA T144 [3] was 1 µg/mL (≈ 0.69 µM) in each case.
